Measured values: patent US12077503B2, “Substituted cyclic amides and their use as herbicides” (FMC CORPORATION, priority 2015, dated 2024)

Columns and labels:
Type in all cases: in vivo
[1] = tested on: Kochia (Kochia scoparia); test: Test A preemergence; conditions: for Plant response rating, Kochia: 125 g ai/ha, preemergence, 0 to 100 scale (0 no effect, 100 complete control); for Kochia plant response rating (0 to 100 scale): Preemergence, 500 g ai/ha, 0 is no effect, 100 is complete control
Excerpt: (§1) Seeds of plant species selected from barnyardgrass (Echinochloa crus-galli), Kochia (Kochia scoparia), ragweed (common ragweed, Ambrosia elatior), ryegrass, Italian (Italian ryegrass, Lolium multiflorum), crabgrass, large (Digitaria sanguinalis), giant foxtail (Setaria faberii), green foxtail (Setaria viridis), morningglory (Ipomoea spp.), pigweed (Amaranthus retroflexus), velvetleaf (Abutilon theophrasti), wheat (Triticum aestivum), and corn (Zea mays) were planted into a blend of loam soil and sand and treated preemergence with a directed soil spray using test chemicals formulated in anon-phytotoxic solvent mixture which included a surfactant.
(§2) At the same time, plants selected from these crop and weed species and also blackgrass (Alopecurus myosuroides), and Galium (catchweed bedstraw, Galium aparine) were planted in pots containing the same blend of loam soil and sand and treated with postemergence applications of test chemicals formulated in the same manner. Plants ranged in height from 2 to 10 cm and were in the one- to two-leaf stage for the postemergence treatment. Treated plants and untreated controls were maintained in a greenhouse for approximately 10 d, after which time all treated plants were compared to untreated controls and visually evaluated for injury. Plant response ratings, summarized in Table A, are based on a 0 to 100 scale where 0 is no effect and 100 is complete control. A dash (-) response means no test result.

[2] = tested on: barnyardgrass (Echinochloa crus-galli); test: Test A preemergence; conditions: for Plant response rating, Barnyardgrass: 125 g ai/ha, preemergence, 0 to 100 scale (0 no effect, 100 complete control); for Barnyardgrass plant response rating (0 to 100 scale): Preemergence, 500 g ai/ha, 0 is no effect, 100 is complete control
Excerpt: as §1, §2

[3] = tested on: giant foxtail (Setaria faberii); test: Test A preemergence; conditions: for Plant response rating, Foxtail, Giant: 125 g ai/ha, preemergence, 0 to 100 scale (0 no effect, 100 complete control); for Foxtail, Giant plant response rating (0 to 100 scale): Preemergence, 500 g ai/ha, 0 is no effect, 100 is complete control
Excerpt: as §1, §2

[4] = tested on: pigweed (Amaranthus retroflexus); test: Test A preemergence; conditions: for Plant response rating, Pigweed: 125 g ai/ha, preemergence, 0 to 100 scale (0 no effect, 100 complete control); for Pigweed plant response rating (0 to 100 scale): Preemergence, 500 g ai/ha, 0 is no effect, 100 is complete control
Excerpt: as §1, §2

[5] = tested on: ragweed (common ragweed, Ambrosia elatior); test: Test A preemergence; conditions: for Plant response rating, Ragweed: 125 g ai/ha, preemergence, 0 to 100 scale (0 no effect, 100 complete control); for Ragweed plant response rating (0 to 100 scale): Preemergence, 500 g ai/ha, 0 is no effect, 100 is complete control
Excerpt: as §1, §2

[6] = tested on: ryegrass, Italian (Italian ryegrass, Lolium multiflorum); test: Test A preemergence; conditions: for Plant response rating, Ryegrass, Italian: 125 g ai/ha, preemergence, 0 to 100 scale (0 no effect, 100 complete control); for Ryegrass, Italian plant response rating (0 to 100 scale): Preemergence, 500 g ai/ha, 0 is no effect, 100 is complete control
Excerpt: as §1, §2

[7] = tested on: Galium (catchweed bedstraw, Galium aparine); test: Test A postemergence
Excerpt: as §1, §2

[8] = tested on: Kochia (Kochia scoparia); test: Test A postemergence
Excerpt: as §1, §2

[9] = tested on: barnyardgrass (Echinochloa crus-galli); test: Test A postemergence
Excerpt: as §1, §2

[10] = tested on: blackgrass (Alopecurus myosuroides); test: Test A postemergence
Excerpt: as §1, §2

[11] = tested on: corn (Zea mays); test: Test A postemergence
Excerpt: as §1, §2

[12] = tested on: giant foxtail (Setaria faberii); test: Test A postemergence
Excerpt: as §1, §2

[13] = tested on: pigweed (Amaranthus retroflexus); test: Test A postemergence
Excerpt: as §1, §2

[14] = tested on: ragweed (common ragweed, Ambrosia elatior); test: Test A postemergence
Excerpt: as §1, §2

[15] = tested on: ryegrass, Italian (Italian ryegrass, Lolium multiflorum); test: Test A postemergence
Excerpt: as §1, §2

[16] = tested on: wheat (Triticum aestivum); test: Test A postemergence
Excerpt: as §1, §2

[17] = tested on: barnyardgrass (Echinochloa crus-galli); test: Test B flooded paddy test; conditions: Flood, 250 g ai/ha; 0 to 100 scale where 0 is no effect and 100 is complete control; 13 to 15 d
Description: (§3) Plant species in the flooded paddy test selected from rice (Oryra sativa), sedge, umbrella (small-flower umbrella sedge, Cyperus difformis), ducksalad (Heteranthera limosa), and barnyardgrass (Echinochloa crus-galli) were grown to the 2-leaf stage for testing. At time of treatment, test pots were flooded to 3 cm above the soil surface, treated by application of test compounds directly to the paddy water, and then maintained at that water depth for the duration of the test. Treated plants and controls were maintained in a greenhouse for 13 to 15 d, after which time all species were compared to controls and visually evaluated. Plant response ratings, summarized in Table B, are based on a scale of 0 to 100 where 0 is no effect and 100 is complete control. A dash (-) response means no test result.

[18] = tested on: ducksalad (Heteranthera limosa); test: Test B flooded paddy test; conditions: Flood, 250 g ai/ha; 0 to 100 scale where 0 is no effect and 100 is complete control; 13 to 15 d
Description: as §3

[19] = tested on: rice (Oryra sativa); test: Test B flooded paddy test; conditions: Flood, 250 g ai/ha; 0 to 100 scale where 0 is no effect and 100 is complete control; 13 to 15 d
Description: as §3

[20] = tested on: sedge, umbrella (small-flower umbrella sedge, Cyperus difformis); test: Test B flooded paddy test; conditions: Flood, 250 g ai/ha; 0 to 100 scale where 0 is no effect and 100 is complete control; 13 to 15 d
Description: as §3

[21] = 500 g ai/ha, postemergence, 0 to 100 scale, 0 no effect, 100 complete control
[22] = Postemergence, 125 g ai/ha, visual injury, 0 to 100 scale (0 no effect, 100 complete control), approx. 10 d

| SMILES | Plant response rating, Kochia [1] | Kochia plant response rating (0 to 100 scale) [1] | Plant response rating, Barnyardgrass [2] | Barnyardgrass plant response rating (0 to 100 scale) [2] | Plant response rating, Foxtail, Giant [3] | Foxtail, Giant plant response rating (0 to 100 scale) [3] | Plant response rating, Pigweed [4] | Pigweed plant response rating (0 to 100 scale) [4] | Plant response rating, Ragweed [5] | Ragweed plant response rating (0 to 100 scale) [5] | Plant response rating, Ryegrass, Italian [6] | Ryegrass, Italian plant response rating (0 to 100 scale) [6] | Plant response rating, Galium [7, 21] | Plant response rating, Galium [7, 22] | Plant response rating, Kochia [8, 21] | Plant response rating, Kochia [8, 22] | Plant response rating, Barnyardgrass [9, 21] | Plant response rating, Barnyardgrass [9, 22] | Plant response rating, Blackgrass [10, 21] | Plant response rating, Blackgrass [10, 22] | other results |
| --- | --- | --- | --- | --- | --- | --- | --- | --- | --- | --- | --- | --- | --- | --- | --- | --- | --- | --- | --- | --- | --- |
| CC(C)Oc1cccc(C2CNC(=O)C2C(=O)Nc2ccc(F)cc2F)c1 (racemic) [Compound 377] | 50 | 80 | 90 | 90 | 90 | 90 | 50 | 70 | 0 | 0 | 20 | 60 | 70 | 60 | 60 | 30 | 90 | 90 | 70 | 50 | Plant response rating, Corn [11, 21]: 50; Plant response rating, Corn [11, 22]: 0; Plant response rating, Foxtail, Giant [12, 21]: 80; Plant response rating, Foxtail, Giant [12, 22]: 80; Plant response rating, Pigweed [13, 21]: 30; Plant response rating, Pigweed [13, 22]: 0; Plant response rating, Ragweed [14, 21]: 60; Plant response rating, Ragweed [14, 22]: 40; Plant response rating, Ryegrass, Italian [15, 21]: 50; Plant response rating, Ryegrass, Italian [15, 22]: 30; Plant response rating, Wheat [16, 21]: 50; Plant response rating, Wheat [16, 22]: 0; Plant response rating, Barnyardgrass [17]: 60; Plant response rating, Ducksalad [18]: 100; Plant response rating, Rice [19]: 25; Plant response rating, Sedge, Umbrella [20]: 0 |
| CCCOc1cccc(C2CNC(=O)C2C(=O)Nc2cccc(F)c2F)c1 (racemic) [Compound 380] | 0 | 40 | 70 | 90 | 50 | 90 | 0 | 30 | 0 | 0 | 0 | 20 | 50 | 20 | 0 | 0 | 80 | 50 | 40 | 30 | Plant response rating, Corn [11, 21]: 0; Plant response rating, Corn [11, 22]: 0; Plant response rating, Foxtail, Giant [12, 21]: 70; Plant response rating, Foxtail, Giant [12, 22]: 30; Plant response rating, Pigweed [13, 21]: 0; Plant response rating, Pigweed [13, 22]: 0; Plant response rating, Ragweed [14, 21]: 0; Plant response rating, Ragweed [14, 22]: 0; Plant response rating, Ryegrass, Italian [15, 21]: 0; Plant response rating, Ryegrass, Italian [15, 22]: 0; Plant response rating, Wheat [16, 21]: 20; Plant response rating, Wheat [16, 22]: 0; Plant response rating, Barnyardgrass [17]: 0; Plant response rating, Ducksalad [18]: 0; Plant response rating, Rice [19]: 0; Plant response rating, Sedge, Umbrella [20]: 0 |
